What all share (assay type): biochemical
One experiment concerns the target T1, human GST-CLK1 (129-end) (Homo sapiens, UniProt P49759).
T1 construct: purified human GST-CLK1 (129-end, Signalchem) enzyme; GST; purchased Signalchem
The experiment is described as follows: GST-CLK1 enzyme inhibition, ADP-Glo kinase assay. The following applies: ATP 10 uM. In outline:
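ADP formation was read by ADP-Glo luminescence after 1 h at 25° C with 3 ng human GST-CLK1 (129-end), substrate and 10 uM ATP in Tris pH 7.4 buffer containing MgCl2, BSA and DTT. Inhibition relative to untreated solvent control gave IC50 (nM), run in triplicate.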

For another experiment, the target named is LRRK2 (Homo sapiens, UniProt Q5S007). Kind of experiment: LRRK2 enzyme inhibition, ADP-Glo kinase assay. The arrangement: purchased Invitrogen PR8604B. On the procedure:
In order to evaluate the inhibitory activity of the compounds according to the present invention on LRRK2, LRRK2 (G2019S), DYRK1, CLK1 and TTK kinases, the following experiment was performed.
Example compounds were reacted with the purified human LRRK2 (Invitrogen #PR8604B) enzyme to evaluate the enzyme inhibitory ability as follows. The reaction buffer was used as the composition of 40 mM Tris-HCl pH7.4, 20 mM MgCl2, 0.5 mg/ml BSA and 50 μM DTT, and the reaction of all test materials was performed on the reaction buffer. The compound was diluted with 10 mM DMSO stock in 12 steps by a serial dilution method, and the enzyme activity was measured at the final compound concentrations of 50, 10, 2, 0.4, 0.08, 0.016, 0.0032, 0.00064, 0.000128, 0.0000256, 0.00000512 and 0.000001024 μM. In the test, the human LRRK2 (25 ng) enzyme was reacted with the purified ATP (10 μM) and an enzyme substrate ([…]) at 25° C. for 2 hours, and then the enzyme activity was identified using the in vitro ADP-Glo™ kinase assay (promega). The enzyme activity reaction liquid, an ADP-Glo reaction liquid and an enzyme potency detection solution were reacted in a ratio of 2:2:1, and the degree of inhibition of enzyme activity was measured by Luminescence. The degree of inhibition of enzyme activity according to the treatment concentrations of the respective compounds was calculated based on the fluorescence of the enzyme activity of a solvent control group that was not treated with the compound, where the concentration of each compound to inhibit enzyme activity inhibition by 50% was determined as an IC50 (nM) value and obtained using Prism (Version 5.01, GraphPad) software.
In the table below, the following designations were used for the evaluation of enzyme inhibitory ability.
For orientation: ADP-Glo first removes unused ATP, then detects ADP through luciferase.

Experiment [1] concerns the target T2, human GST-DYRK1A (full length) (Homo sapiens, UniProt Q13627).
T2 construct: purified human GST-DYRK1A (full length, Thermo scientifics) enzyme; GST; purchased Thermo scientifics
The experiment is described as follows: GST-DYRK1A enzyme inhibition, ADP-Glo kinase assay. The note with it: read-out: DYRK1 IC50. In a few lines: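 ADP-Glo luminescence quantified kinase activity after a 1 h, 25° C reaction of 10 ng full-length GST-tagged human DYRK1A, substrate and 10 uM ATP in Tris-HCl buffer pH 7.4 with MgCl2, BSA and DTT. Triplicate IC50 values (nM) calculated relative to untreated solvent control.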

In another experiment the target is LRRK2 (G2019S) (Homo sapiens, UniProt Q5S007, G2019S). The experiment is described as follows: LRRK2 G2019S enzyme inhibition, ADP-Glo kinase assay. The arrangement: purchased SignalChem L10-12GG. In a few lines: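 Activity read as ADP-Glo luminescence, normalized to untreated solvent control, with IC50 (nM) fitted over 12 final compound levels (top 50 μM). Reaction: 2 h, 25° C, human LRRK2 G2019S 16 ng, ATP 25 μM, substrate 0.2 μg, in Tris-HCl pH 7.4 with MgCl2, BSA and DTT.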
Chain of LRRK2 (G2019S) (Q5S007 970-2527 G2019S limits assumed): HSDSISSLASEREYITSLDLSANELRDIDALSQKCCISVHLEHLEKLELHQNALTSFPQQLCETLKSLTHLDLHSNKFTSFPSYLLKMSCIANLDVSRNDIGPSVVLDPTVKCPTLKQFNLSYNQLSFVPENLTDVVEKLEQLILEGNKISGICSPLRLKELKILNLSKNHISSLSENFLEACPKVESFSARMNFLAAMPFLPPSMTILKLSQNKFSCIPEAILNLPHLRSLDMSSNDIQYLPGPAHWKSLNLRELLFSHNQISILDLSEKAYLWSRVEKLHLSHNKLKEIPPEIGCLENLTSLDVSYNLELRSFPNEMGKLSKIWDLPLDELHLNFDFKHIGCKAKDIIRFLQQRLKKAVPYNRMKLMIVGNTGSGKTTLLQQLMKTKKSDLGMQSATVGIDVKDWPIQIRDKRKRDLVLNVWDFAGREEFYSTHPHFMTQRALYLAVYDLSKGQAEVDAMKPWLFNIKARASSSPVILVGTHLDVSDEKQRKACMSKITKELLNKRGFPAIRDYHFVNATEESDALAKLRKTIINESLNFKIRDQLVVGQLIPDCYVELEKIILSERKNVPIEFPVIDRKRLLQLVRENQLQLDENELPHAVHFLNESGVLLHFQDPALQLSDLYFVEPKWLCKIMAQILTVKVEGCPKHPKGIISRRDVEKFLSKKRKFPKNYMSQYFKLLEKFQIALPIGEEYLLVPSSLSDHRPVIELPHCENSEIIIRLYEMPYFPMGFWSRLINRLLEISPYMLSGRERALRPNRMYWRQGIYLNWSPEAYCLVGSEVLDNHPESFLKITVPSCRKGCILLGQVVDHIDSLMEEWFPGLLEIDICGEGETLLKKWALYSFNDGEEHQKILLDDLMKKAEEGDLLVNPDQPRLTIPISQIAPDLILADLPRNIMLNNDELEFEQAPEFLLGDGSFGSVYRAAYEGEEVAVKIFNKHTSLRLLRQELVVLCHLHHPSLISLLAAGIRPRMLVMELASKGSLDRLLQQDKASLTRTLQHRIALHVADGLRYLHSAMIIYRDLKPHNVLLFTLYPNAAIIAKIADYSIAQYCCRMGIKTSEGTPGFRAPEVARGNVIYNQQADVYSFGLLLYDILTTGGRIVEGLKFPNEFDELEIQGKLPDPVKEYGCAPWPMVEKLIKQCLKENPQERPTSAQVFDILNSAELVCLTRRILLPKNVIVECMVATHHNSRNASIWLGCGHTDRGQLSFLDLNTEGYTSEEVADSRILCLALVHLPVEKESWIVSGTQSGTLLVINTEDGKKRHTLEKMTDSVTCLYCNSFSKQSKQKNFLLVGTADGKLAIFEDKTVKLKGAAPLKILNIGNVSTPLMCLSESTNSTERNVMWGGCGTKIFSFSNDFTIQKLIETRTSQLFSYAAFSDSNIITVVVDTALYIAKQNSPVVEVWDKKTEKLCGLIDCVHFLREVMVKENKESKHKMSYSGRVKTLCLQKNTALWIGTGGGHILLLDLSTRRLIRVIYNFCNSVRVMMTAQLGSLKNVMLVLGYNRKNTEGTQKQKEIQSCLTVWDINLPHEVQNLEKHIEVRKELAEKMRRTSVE

T1 sequence (P49759 129-484 limits assumed): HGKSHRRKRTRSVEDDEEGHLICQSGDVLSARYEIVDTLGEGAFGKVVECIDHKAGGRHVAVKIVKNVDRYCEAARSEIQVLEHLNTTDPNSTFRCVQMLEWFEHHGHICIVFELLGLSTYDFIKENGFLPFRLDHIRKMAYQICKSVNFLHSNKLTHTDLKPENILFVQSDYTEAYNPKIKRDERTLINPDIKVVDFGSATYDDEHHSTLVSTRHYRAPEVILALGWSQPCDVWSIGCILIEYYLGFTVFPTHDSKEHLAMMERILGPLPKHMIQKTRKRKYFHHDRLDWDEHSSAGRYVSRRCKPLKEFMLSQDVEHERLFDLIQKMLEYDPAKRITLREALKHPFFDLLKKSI
Chain of LRRK2 (Q5S007 970-2527 limits assumed): as the sequence (Q5S007 970-2527 G2019S limits assumed) above, with S1050G counted along it

Usually IC50 stands for the point on the concentration scale where inhibition reaches its midpoint. Regarding `CNc1cc(Nc2ccc(C(=O)N3C[C@@H]4C[C@H]3CO4)c3c2OCCO3)nc2[nH]cc(C(F)(F)F)c12` [Example 43, ((1S,4S)-2-oxa-5-azabicyclo[2.2.1]heptan-5-yl)(8-((4-(methylamino)-3-(trifluoromethyl)-1H-pyrrolo[2,3-b]pyridin-6-yl)amino)-2,3-dihydrobenzo[b] [1,4]dioxin-5-yl)methanone], the IC50 (against human GST-CLK1 (129-end); against LRRK2; in experiment [1]) was under 100 nM throughout.

For `CCCNc1cc(Nc2ccc(P3(=O)CCN(C4CC4)CC3)cc2OC)nc2[nH]cc(C(F)(F)F)c12` [Example 45, 1-cyclopropyl-4-(3-methoxy-4-((4-(propylamino)-3-(trifluoromethyl)-1H-pyrrolo[2,3-b]pyridin-6-yl)amino)phenyl)-1,4-azaphosphinane 4-oxide], the IC50 on human GST-CLK1 (129-end) was in the range of 301 to 1000 nM; against LRRK2, 101 to 300 nM; in experiment [1], 101 to 300 nM.

`COc1cc(P2(=O)CCN(C3CC3)CC2)ccc1Nc1cc(NC2CCC2)c2c(C(F)(F)F)c[nH]c2n1` [Example 46, 4-(4-((4-(cyclobutylamino)-3-(trifluoromethyl)-1H-pyrrolo[2,3-b]pyridin-6-yl)amino)-3-methoxyphenyl)-1-cyclopropyl-1,4-azaphosphinane 4-oxide]: the IC50 (against human GST-CLK1 (129-end); against LRRK2; in experiment [1]) was 301 to 1000 nM in each case.

As to `CN(C)c1cc(Nc2ccc(C(=O)N3CCC(N4CCOCC4)CC3)c3c2OCCO3)nc2[nH]cc(C(F)(F)F)c12` [Example 50, (8-((4-(dimethylamino)-3-(trifluoromethyl)-1H-pyrrolo[2,3-b]pyridin-6-yl)amino)-2,3-dihydrobenzo[b] [1,4]dioxin-5-yl)(4-morpholinopiperidin-1-yl)methanone], the concentration for half-maximal inhibition (IC50) at human GST-CLK1 (129-end) was under 100 nM; on LRRK2 it was under 100 nM; in experiment [1] it was 301 to 1000 nM.

`CCN(C)c1cc(Nc2ccc(C(=O)N3CCC(N4CCOCC4)CC3)c3c2OCCO3)nc2[nH]cc(C(F)(F)F)c12` [Example 51, (8-((4-(ethyl(methyl)amino)-3-(trifluoromethyl)-1H-pyrrolo[2,3-b]pyridin-6-yl)amino)-2,3-dihydrobenzo [b] [1,4]dioxin-5-yl)(4-morpholinopiperidin-1-yl)methanone]: the IC50 on human GST-CLK1 (129-end) is 101 to 300 nM; against LRRK2, 101 to 300 nM; in experiment [1] it was 301 to 1000 nM.

`CCNc1cc(Nc2ccc(C(=O)N3CCN(C4CCCC4)CC3)c3c2OCC3)nc2[nH]cc(C(F)(F)F)c12` [Example 251, (4-cyclopentylpipe razin-1-yl)(7-((4-(ethylamino)-3-(trifluoromethyl)-1H-pyrrolo[2,3-b]pyridin-6-yl)amino)-2,3-dihydrobenzofuran-4-yl)methanone]: the IC50 on human GST-CLK1 (129-end) was under 100 nM; on LRRK2 (G2019S), under 100 nM; in experiment [1] it was 101 to 300 nM.

On to `C=CCN1CCN(C(=O)c2ccc(Nc3cc(NCC)c4c(C(F)(F)F)c[nH]c4n3)c3c2CCO3)CC1` [Example 252, (4-allylpiperazin-1-yl)(7-((4-(ethylamino)-3-(trifluoromethyl)-1H-pyrrolo[2,3-b]pyridin-6-yl)amino)-2,3-dihydrobenzofuran-4-yl)methanone], for which the IC50 (against human GST-CLK1 (129-end); on LRRK2 (G2019S); in experiment [1]) was under 100 nM throughout.

For `CCNc1cc(Nc2ccc(C(=O)N3CCN(C(C)C)CC3)c3c2OCC3)nc2[nH]cc(C(F)(F)F)c12` [Example 254, (7-((4-(ethylamino)-3-(trifluoromethyl)-1H-pyrrolo[2,3-b]pyridin-6-yl)amino)-2,3-dihydrobenzofuran-4-yl)(4-isopropylpiperazin-1-yl)methanone], the IC50 (against human GST-CLK1 (129-end); at LRRK2 (G2019S); in experiment [1]) was under 100 nM each time.

With `CCNc1cc(Nc2ccc(C(=O)N3CCC4(CC3)CC4)c3c2OCC3)nc2[nH]cc(C(F)(F)F)c12` [Example 256, (7-((4-(ethylamino)-3-(trifluoromethyl)-1H-pyrrolo[2,3-b]pyridin-6-yl)amino)-2,3-dihydrobenzofuran-4-yl)(6-azaspiro[2.5]octan-6-yl)methanone], the concentration for half-maximal inhibition (IC50) at human GST-CLK1 (129-end) lay within 101 to 300 nM; against LRRK2 (G2019S), 301 to 1000 nM; in experiment [1], 301 to 1000 nM.

`CCNc1cc(Nc2ccc(C(=O)N3C[C@@H](C)O[C@@H](C)C3)c3c2OCC3)nc2[nH]cc(C(F)(F)F)c12` [Example 258, ((2S,6R)-2,6-dimethylmorpholino) (7-((4-(ethylamino)-3-(trifluoromethyl)-1H-pyrrolo[2,3-b]pyridin-6-yl)amino)-2,3-dihydrobenzofuran-4-yl)methanone]: the IC50 at human GST-CLK1 (129-end) is 101 to 300 nM; against LRRK2 (G2019S), 301 to 1000 nM; in experiment [1] it was under 100 nM.

Regarding `CCNc1cc(Nc2ccc(C(=O)N3CCO[C@@H](C)C3)c3c2OCC3)nc2[nH]cc(C(F)(F)F)c12` [Example 259, (S)-(7-((4-(ethylamino)-3-(trifluoromethyl)-1H-pyrrolo[2,3-b]pyridin-6-yl)amino)-2,3-dihydrobenzofuran-4-yl)(2-methylmorpholino) methanone], the IC50 (against human GST-CLK1 (129-end); against LRRK2 (G2019S); in experiment [1]) was under 100 nM in each case.

As to `CCNc1cc(Nc2ccc(C(=O)N3CCO[C@H](C)C3)c3c2OCC3)nc2[nH]cc(C(F)(F)F)c12` [Example 260, (R)-(7-((4-(ethylamino)-3-(trifluoromethyl)-1H-pyrrolo[2,3-b]pyridin-6-yl)amino)-2,3-dihydrobenzofuran-4-yl)(2-methylmorpholino) methanone], the IC50 (at human GST-CLK1 (129-end); on LRRK2 (G2019S); in experiment [1]) was under 100 nM throughout.

Regarding `C=CCNc1cc(Nc2ccc(C(=O)N3CC[C@@H](N4CCOCC4)C3)c3c2OCC3)nc2[nH]cc(C(F)(F)F)c12` [Example 261, (R)-(7-((4-(allylamino)-3-(trifluoromethyl)-1H-pyrrolo[2,3-b]pyridin-6-yl)amino)-2,3-dihydrobenzofuran-4-yl)(3-morpholinopyrrolidin-1-yl)methanone], the IC50 was under 100 nM on human GST-CLK1 (129-end), under 100 nM against LRRK2 (G2019S) and 101 to 300 nM in experiment [1].

For `C=CCNc1cc(Nc2ccc(C(=O)N3CC[C@H](N4CCOCC4)C3)c3c2OCC3)nc2[nH]cc(C(F)(F)F)c12` [Example 262, (S)-(7-((4-(allylamino)-3-(trifluoromethyl)-1H-pyrrolo[2,3-b]pyridin-6-yl)amino)-2,3-dihydrobenzofuran-4-yl)(3-morpholinopyrrolidin-1-yl)methanone], the IC50 at human GST-CLK1 (129-end) is under 100 nM; against LRRK2 (G2019S) it was under 100 nM; in experiment [1], 101 to 300 nM.

On to `CCNc1cc(Nc2ccc(C(=O)N3CCC(N4C[C@@H](C)O[C@@H](C)C4)CC3)c3c2OCC3)nc2[nH]cc(C(F)(F)F)c12` [Example 263, (4-((2S,6R)-2,6-dimethylmorpholino)piperidin-1-yl)(7-((4-(ethylamino)-3-(trifluoromethyl)-1H-pyrrolo[2,3-b]pyridin-6-yl)amino)-2,3-dihydrobenzofuran-4-yl)methanone], for which the IC50 (at human GST-CLK1 (129-end); against LRRK2 (G2019S); in experiment [1]) was under 100 nM each time.

For `CCNc1cc(Nc2ccc(P3(=O)CCN(Cc4ccc(OC)cc4OC)CC3)cn2)nc2[nH]cc(C(F)(F)F)c12` [Example 267, 1-(2,4-dimethoxybenzy 1)-4-(6-((4-(ethylamino)-3-(trifluoromethyl)-1H-pyrrolo[2,3-b]pyridin-6-yl)amino)pyridin-3-yl)-1,4-azaphosphinane 4-oxide], the IC50 (against human GST-CLK1 (129-end); against LRRK2 (G2019S); in experiment [1]) was under 100 nM in each case.

Values taken from US12240844B2 (Voronoi, Inc., priority 2019, dated 2025).
